These are literature values, as cited in US9375463B2, “Compositions and methods for improving sleep using a nutraceutical formulation” (Creative Medical Health Inc., priority 2013, dated 2016).

For one series, the system named is elderly subjects. The settings on record: 500 mg daily for 8 weeks, 46 elderly subjects.
The conditions of series [1]: 3 mg.
Series [2] concerns healthy males with normal sleep patterns. The following applies: 0.3 or 1.0 mg, orally.
Series [3] relates to children most of whom were neurologically disabled. The following applies: 2-5 mg before bedtime for 7-10 days, fifteen subjects.
Another series relates to subjects. The settings on record: oral, 4 weeks, 9 subjects; by increasing sensitivity to light.
The next series concerns infants. The settings on record: daily for 12 months.

With `[Mg+2]` [magnesium], in the series on elderly subjects, the “levels of serum cortisol” value was “reduced the levels of serum cortisol” and the “subjective measures of sleep” value was “improved subjective measures of sleep”.
Consider “N-acetyl-5-hydroxytryptamine [melatonin]”, for which, in series [1], the “subjective sleep experiences (time to fall asleep, quality of sleep, awakenings)” value is “subjective improvements in sleep experiences”. Further, the “falling asleep faster than individuals given placebo (sleep onset latency)” value in series [2] is “approximately 40 minutes”. The sleep and moods result in series [3] was “improve sleep and moods”.
Take vitamin B12: in the series on subjects, the circadian rhythm result was “advanced the circadian rhythm”.
On to zinc [zinc supplements], for which, in the series on infants, the night sleep duration entry is listed as “increased night sleep duration” and the night waking entry was “less night waking”.
